Where two headings read alike, the source gives them in different places. Where no end group is shown, it is not given here. [ ]: non-standard residue; d: D form.

For series [1] the following is noted: cited from earlier work.
The conditions of series [2]: cited from earlier work. The source holds these as a separate data set.
For series [3] the following is noted: cited from earlier work. This is another data set of the same source.
The conditions of series [4]: 5.5 (±1.7) ug/kg/min i.v. with inhaled nitric oxide (5 p.p.m.), across all subjects [183]; cited from earlier work.
The conditions of series [5]: cited from earlier work. This is another data set of the same source.
The conditions of series [6]: rats, radioactively labelled [151]; cited from earlier work.
The test system of series [7] is cells. The conditions noted are these: variant with side-chain chiral amino acids swopped; cited from earlier work.
Series [8] concerns cells. The following applies: cited from earlier work.
Series [9] has as its system ROS (superoxide). Description: MitoSOX ROS (superoxide) signal in cultured cortical neurons of H+/T+ mice. The conditions noted are these: H+/T+ vs wild-type mitochondria, corrected for MitoSOX accumulation. The format is cell-based, mouse. An excerpt: (FIG. 6B) Experiments with cortical neurons in culture, after being cultured for 9-10 days, after being extracted from mouse embryos. […] As in FIG. 6A. But this time in cultured cortical neurons from the mice (embryos), wherein the mitochondria of H+/T+ mice have a more hyperpolarized ΨIM (accumulate more TMRM^+) than wild-type. But, as in FIG. 6A, have a more depolarized ΨIM upon FCCP/respiratory chain inhibitor (antimycin A/rotenone) administration. A typical value for ΨIM in normal mitochondria is −140 mV and if we equate the 5 a.u. value for wild-type in the 2nd panel with −140 mV, then the 6 a.u. value of H+/T+here in the 2nd panel is −168 mV. This ΨIM disparity means that H+/T+ mitochondria accumulates more MitoSOX ROS (superoxide) reporting compound in their mitochondrial matrix, wherein this disparity can be calculated using the equation presented earlier, and this disparity is shown here, in the 3rd panel. With this MitoSOX accumulation disparity, one would expect a greater MitoSOX signal from H+/T+ mitochondria, to wild-type mitochondria, in the proportion shown in the 3rd panel. But what is actually experimentally observed is in the 4th panel. Thence H+/T+ mitochondria must produce 66% less ROS (superoxide) than wild-type, which fits with their lower oxidative respiration rate observed in (FIG. 6A). […]

Series [10] addresses T1, F1F0 ATP hydrolysis (Mus musculus, UniProt P56480+Q03265).
T1 construct: F1F0 ATP hydrolysis is 35% less in brain mitochondria isolated from H+/T+ than wild-type mice; from tissue; host or cells: mitochondria isolated from brain of wild-type and H+/T+ double transgenic mice
The conditions noted are these: brain mitochondria of H+/T+ vs wild-type mice [130]; cited from earlier work.

Series [11] deals with oxidative phosphorylation. The conditions noted are these: State 3 respiration, H+/T+ vs wild-type [130]; cited from earlier work.
Series [12] deals with T1, F1F0 ATP hydrolysis. The following applies: cited from earlier work.
Series [13] relates to oxidative phosphorylation. The following applies: cited from earlier work.
The conditions of series [14]: mouse, in vivo; cited from earlier work.
For series [15], the target named is T1, F1F0 ATP hydrolysis. The following applies: colon mitochondria, I/T Tet-on mice [136]; cited from earlier work.
The test system of series [16] is oxidative phosphorylation. The conditions noted are these: colon mitochondria, I/T Tet-on mice [136]; cited from earlier work.
The target in series [17] is bovine F1F0 ATP hydrolysis (Bos taurus, UniProt P00829+P19483). The following applies: cited from earlier work.
[18] abbreviates: COPD patients, 100 mg oral daily for 1 year, at year end.
The mark [19] stands for this setting: COPD patients, 100 mg oral daily for 1 year [168].
Setting [20] is: 7.47 ug/kg/min for 2 hours (60 mg), at the end of the infusion period.

For `C=CCNc1nc(NCC=C)nc(N2CCN(C(c3ccc(F)cc3)c3ccc(F)cc3)CC2)n1` [almitrine dimesylate], the “plasma [almitrine]” value in [1] (COPD patients, 50 mg twice daily for 8 weeks, 2 weeks after the study) is 104 ng/mL; in series [1] (COPD patients, 100 mg twice daily for 8 weeks, 2 weeks after the study), 311 ng/mL; in series [1] (COPD patients, 100-200 mg daily, those presenting peripheral neuropathy, at 3 months), 344 ng/mL; in [1] (COPD patients, 100-200 mg daily, those presenting peripheral neuropathy, at 12 months) it was 617 ng/mL; in [1] (COPD patients, 100-200 mg daily, those without peripheral neuropathy, at 3 months), 249 ng/mL; in [1] (COPD patients, 100-200 mg daily, those without peripheral neuropathy, at 12 months), 387 ng/mL. For the same molecule, the “plasma [almitrine] before the morning dose” value in [1] (COPD patients, 50 mg twice daily, day 14) was 93 ng/mL; in series [1] (COPD patients, 50 mg twice daily, day 28) it was 134 ng/mL; in [1] (COPD patients, 50 mg twice daily, day 42) it was 148 ng/mL; in series [1] (COPD patients, 50 mg twice daily, day 56) it was 171 ng/mL; in [1] (COPD patients, 100 mg twice daily, day 14), 268 ng/mL; in [1] (COPD patients, 100 mg twice daily, day 28), 409 ng/mL. In addition, the “plasma [almitrine] before the morning dose” value in series [1] (COPD patients, 100 mg twice daily, day 42) is 442 ng/mL; in series [1] (COPD patients, 100 mg twice daily, day 56), 572 ng/mL. Besides, the “average trough plasma [almitrine]” value in series [1] (COPD patients, 75 mg oral daily for 6 months, at study end) is 302 ng/mL. Also, the “mean plasma [almitrine]” value in [1] (COPD patients, 100 mg oral daily 2 months then 1 month none, cycle for 1 year, at end) is 285 ng/mL; in series [1] (setting [18]), 409.35 ng/mL. Also, the “trough plasma [almitrine]” value in series [1] (setting [18]) was 301.8 ng/mL. In series [1] (COPD patients, long term [167]), the “plasma [almitrine], two 50 mg doses per day vs a single 100 mg oral dose” value is listed as 2 to 3 times higher. Besides, the “time of peak plasma concentration of almitrine after consuming” value in series [1] (human, oral [151]) is 3.5 ± 0.7 h. In addition, in [1] (on average across subjects), the oral dose bioavailable was 85%. Further, the adverse effects result in series [2] (COPD patients, 75 mg oral daily for 6 months) is given as “no adverse effects”. Moreover, the “increase in occurrence of a nervous system disorder vs placebo control” value in series [2] (setting [19]) is given as 4%. In [2] (setting [19]), the “increase in occurrence of paraesthesia vs placebo control” value is on record as 5%. Besides, the “increase in occurrence of polyneuropathy vs placebo control” value in series [2] (setting [19]) is reported as 3.6%. In series [2] (COPD patients, 100-200 mg daily for a year [151]), the “incidence of peripheral neuropathy, almitrine vs control group” value is given as 5 times higher. In addition, in [2] (COPD patients, 100-200 mg daily for a year, in a minority [151]), the “time at which peripheral neuropathy started to manifest, on average” value is given as 7 months. Moreover, the safety result in [2] (healthy subjects, 400 mg oral per day, short term [163]) was “safe”. For the same molecule, in series [3] (setting [20]), the “lowest observed almitrine plasma level” value is 242 ng/mL. For the same molecule, the “mean almitrine plasma level” value in series [3] (setting [20]) is 327 ng/mL; in series [3] (7.47 ug/kg/min for 2 hours, 15 minutes afterwards), 157 ng/mL; in series [3] (7.47 ug/kg/min for 2 hours, 30 minutes afterwards), 154 ng/mL; in series [3] (7.47 ug/kg/min for 2 hours, 60 minutes afterwards), 105 ng/mL; in [3] (7.47 ug/kg/min for 2 hours, 120 minutes afterwards), 67 ng/mL; in series [3] (7.47 ug/kg/min for 2 hours, 600 minutes afterwards), 55 ng/mL. Also, in series [4], the “increase of arterial pO2” value is reported as above 30%.
As for `C=CCNc1nc(NCC=C)nc(N2CCN(C(c3ccc(F)cc3)c3ccc(F)cc3)CC2)n1` [almitrine], the “mean plasma concentration of almitrine” value in [3] (8 μg/kg/min for 20 minutes, during infusion) was 325 ng/mL; in [3] (16 μg/kg/min, 20 minutes into the infusion), 659 ng/mL. Moreover, in series [3] (16 μg/kg/min for 1 hour [177]), the “highest observed plasma almitrine concentration” value was ~1,600 ng/ml. For the same molecule, the “plasma almitrine concentration, all subjects but one” value in series [3] (16 μg/kg/min for 1 hour, 2 hours after the infusion stopped [177]) is listed as “below 400 ng/ml”. The “plasma almitrine concentration, all subjects” value is recorded as “below 200 ng/ml” in series [3] (16 μg/kg/min for 1 hour, by 12 hours [177]) and “greater than 600 ng/ml” in series [3] (16 μg/kg/min for 1 hour, during infusion [177]). For the same molecule, the adverse side-effect result in series [5] (8.3 μg/kg/min for 30 minutes [176]) is on record as “no adverse side-effect was observed”. Besides, the plasma lactate concentrations result in series [5] (16 μg/kg/min infusion) is listed as “remained within the normal range in all patients”. Besides, the deleterious effects result in series [5] (16.7 ug/kg/min for 1 hour) is listed as “without deleterious effects”. For the same molecule, in [6], the tissue accumulation entry was “especially accumulated in the lungs”.
Take “Kkwkmrrnqfwvkvqr (K[dK][dW][dK][dM][dR][dR][dN][dQ][dF][dW][dV][dK][dV][dQ][dR]; not fully specified (residue 1); printed as Kkwkmrrnqfwvkvqr; also: retroinverse) [Retroinverse penetratin]”: the “cellular penetration compared with penetratin” value in series [7] was “greater cellular penetration than penetratin”. Moreover, the cellular toxicity result in series [8] is “some cellular toxicity”.

B1: human H49K IF1 protein: mutant human IF1 protein with a H49K substitution, expressed as transgene in mice (protein, UniProt Q9UII2 26-106, looked up, variant H49K)
ATPase inhibitor, …: GSDQSENVDRGAGSIREAGGAFGKREQAEEERYFRAQSREQLAALKKHKEEEIVHHKKEIERLQKEIERHKQKIKMLKHDD
modifications: expressed as transgene in mice
For B1, in series [9], the “less ROS (superoxide) produced” value stood at 66%. The “reduction of F1F0 ATP hydrolysis capability” value in series [10] is 35%. Further, in series [11], the “less O2 consumption” value is reported as around 60%. For the same molecule, the results for the “inhibition of F1F0 ATP hydrolysis capability” value in [12] (Tet-off mice [135]) and in series [12] (Tet-on mice [135]) were 25% and 40%, respectively. Further, the figures for the “decrease of State 3 respiration rate” value in [13] (Tet-off mice [135]) and in series [13] (Tet-on mice [135]) were 37% and 44%, respectively. In addition, in series [14], the “weight, life span and cage behavior” value was “no differences in weight, life span and cage behavior when compared to controls after one year of follow up”.

B2: human IF1 protein: Non-mutant human IF1 protein expressed as transgene in mouse intestine cells (protein, UniProt Q9UII2 26-106, looked up)
ATPase inhibitor, …: GSDQSENVDRGAGSIREAGGAFGKREQAEEERYFRAQSREQLAALKKHHEEEIVHHKKEIERLQKEIERHKQKIKMLKHDD
In the case of B2, the “inhibition of F1F0 ATP hydrolysis capability” value in series [15] is given as 35%. Moreover, in series [16], the “decrease of oligomycin sensitive respiration rate” value is given as 60%.

B3: yeast IF1 protein: IF1 protein sequence from yeast (protein, UniProt P01097 23-85, looked up)
F(1)-ATPase inhibitor IF(1), …: SEGSTGTPRGSGSEDSFVKRERATEDFFVRQREKEQLRHLKEQLEKQRKKIDSLENKIDSMTK
Regarding B3, the “inhibition of bovine F1F0 ATP hydrolysis” value in [17] is “can inhibit”.

Values taken from US20250325469A1, “Inhibitors of atp synthase - cosmetic and therapeutic uses” (priority 2021, published 2025).
